Laboratory results reported in patent publication US20150164899A1, “INHIBITION OF ADAPTOR ASSOCIATED KINASE 1 FOR THE TREATMENT OF PAIN” (priority 2012, published 2015).
Where two headings read alike, the source gives them in different places.

Key:
[1] = test system: formalin-induced paw flinching; test: formalin paw test; format: in vivo; conditions: 30 mpk ip, mice
Protocol: See example 5.4.1, above. The same test was used to confirm that the administration of an AAK1 inhibitor can also affect pain response.
Mice were tested for nociception with Automatic Nociception Analyzers (purchased from the Ozaki lab at University of California, San Diego). A metal band was placed around the left hind paw of each mouse with superglue 30 minutes prior to testing. After the 30-minute acclimation period, 20 μl of 5% formalin was subcutaneously injected in the dorsal surface of the left hind paw. Mice were individually housed in cylindrical chambers for 45 minutes. Fresh 5% formalin solution was prepared by diluting formaldehyde (Formalde-fresh 20%, Fisher Scientific, Fair Lawn, N.J.) with distilled water. Investigatory compounds were administered 30 minutes prior to formalin injection.
A computer software recorded flinches per minute, total flinches for Phase I (acute phase=first 8 minutes), and total flinches for Phase II (tonic phase between 20-40 minutes) through an electromagnetic field. See Yaksh T L, Ozaki G, McCumber D, Rathbun M, Svensson C, Malkmus S, Yaksh M C. An automated flinch detecting system for use in the formalin nociceptive bioassay. J Appl Physiol., 2001; 90:2386-402.
Various compounds of the invention were tested at different doses. Gabapentin and pregabalin were used as positive controls. Results are shown below in Table 2, wherein “*” means an effect equal to or greater than 50 percent of that of gabapentin at 200 mpk, “**” means an effect equal to or greater than 100 percent of that of gabapentin at 200 mpk, “sc” means subcutaneous administration, “ip” means in intraperitoneal administration, and “po” means oral administration.

[2] = target: T1, AAK1 (full-length human protein) (Homo sapiens, UniProt Q2M2I8); test: P81 filter plate assay; format: biochemical
T1 construct: NP_055726.2
T1 sequence (Q2M2I8 1-863 isoform Q2M2I8-2): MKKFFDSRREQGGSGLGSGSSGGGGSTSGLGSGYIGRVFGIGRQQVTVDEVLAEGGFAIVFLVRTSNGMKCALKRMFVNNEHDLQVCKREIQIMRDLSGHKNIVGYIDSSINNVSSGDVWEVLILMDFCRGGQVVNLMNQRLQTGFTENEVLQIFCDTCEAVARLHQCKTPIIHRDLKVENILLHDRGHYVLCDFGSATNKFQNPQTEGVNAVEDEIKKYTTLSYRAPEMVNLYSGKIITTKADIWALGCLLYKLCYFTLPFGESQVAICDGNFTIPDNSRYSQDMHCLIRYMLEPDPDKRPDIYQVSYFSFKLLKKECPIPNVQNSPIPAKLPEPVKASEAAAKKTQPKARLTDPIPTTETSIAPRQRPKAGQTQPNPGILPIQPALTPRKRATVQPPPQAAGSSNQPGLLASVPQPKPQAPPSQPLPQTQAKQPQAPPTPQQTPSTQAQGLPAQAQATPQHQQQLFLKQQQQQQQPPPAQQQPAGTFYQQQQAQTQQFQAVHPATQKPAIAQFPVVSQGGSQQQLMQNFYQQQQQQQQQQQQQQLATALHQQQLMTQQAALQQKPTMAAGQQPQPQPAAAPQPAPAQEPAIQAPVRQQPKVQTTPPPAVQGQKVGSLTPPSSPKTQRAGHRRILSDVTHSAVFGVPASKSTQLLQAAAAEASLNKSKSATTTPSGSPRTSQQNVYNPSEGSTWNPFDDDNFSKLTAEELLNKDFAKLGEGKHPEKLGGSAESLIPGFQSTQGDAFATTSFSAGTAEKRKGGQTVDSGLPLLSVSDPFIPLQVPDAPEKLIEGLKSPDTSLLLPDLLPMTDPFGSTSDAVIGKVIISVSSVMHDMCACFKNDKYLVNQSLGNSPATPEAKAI
Protocol: Compounds were serially diluted into a Labcyte LDV plate (Labcyte, cat# LP-0200) using a Mutiprobe (PerkinElmer) and Biomek FX (Beckman Coulter) so that the highest compound concentration was at 96 μM. Compounds were then pinged (75 nL per well) into a Greiner 384-well reaction plate (Greiner, #781076) using an ECHO 550 Liquid Handler (Labcyte). A total of 12 μl reaction buffer (IMAP buffer containing Tween and DTT, from Molecular Devices) was then added to each well of columns 1 and 13 for the negative controls and 12 μl of 2×AAK1 (0.2 nM full-length human protein, NCBI accession no. NP_055726.2) was added to the remaining wells. Enzyme was then pre-incubated with compound for 10 minutes at RT. Reactions were initiated upon Minitrak (PerkinElmer) addition of 12 μl substrate mix containing 2× Mu2 (0.2 μM, full length human protein), 2× cold ATP (2 μM), and 1.3 μCi of hot ^33P-ATP. Reactions proceeded for one hour at RT. Meanwhile, Millipore 384-well P81 filter plates (Millipore, catalog # MZPHN0W10) were placed on a plate washer (Zoom Z W, from Titertek) and pre-wet with 50 μl 1% phosphoric acid. Kinase reactions were then stopped upon addition of 24 μl of 2% phosphoric acid to each well and the Minitrak was then used to transfer 40 μl from each well into the pre-wet Millipore 384-well P81 filter plates. Reaction mixtures were incubated for 10 minutes at RT in the P81 plates, followed by washing five times with 100 μl/well of 1% phosphoric acid using the Zoom filter washer. The bottom of each filter plate was sealed followed by addition of 20 μl Microscint 40 to each well, sealing the top of the plates with Flashplate cover, and then waiting one hour until reading on the TopCount (PerkinElmer).

[3] = target: T2, AAK1 (full length human) in transfected HEK293F cells (Homo sapiens, UniProt Q2M2I8); test: HEK281 cell-based assay (phospho-mu2 Western blot); conditions: HEK281 cell-based assay, read-out: CBA IC50
T2 construct: expressed in transfected cells; host or cells: HEK293F
T2 sequence (Q2M2I8 1-863 isoform Q2M2I8-2): as above
Protocol: HEK293F cells were cultured in media containing DMEM (Gibco, cat. #11965), 10% FBS (SAFC Biosciences, cat. #12103C), 1×GPS (glutamine, penicillin and streptomycin). On day one, cells were plated on a 10 cm dish so that they are ˜80% confluent at time of transfection. Roughly 12 million cells were in a 10 cm dish at time of transfection. On day two, each dish was transfected with 48 ug DNA and 144 ul Lipofectamine 2000 (Invitrogen, cat.#11668-019). The DNA was comprised of a mixture (per 10 cm dish) containing 3 ug AAK1/HA/pIRES (full length human, NCBI accession no. NP_055726.2), 45 μg Flag/AP2MI/pcDNA (full length human), and 1.5 ml OPTI-MEM. The Lipofectamine 2000 is made up of a mixture (per 10 cm dish) containing 144 μl Lipofectamine 2000 and 1.5 ml OPTI-MEM. Each mixture was transferred to individual 15 ml tubes and incubated at RT for 5 minutes, and then the two mixes were combined and incubated at RT for 20 minutes. Growth media was then aspirated from each 10 cm plate and replaced with 10 ml of DMEM+10% FBS (no GPS). Finally, 3 ml DNA/Lipofectamine mix was added to each 10 cm dish and mix gently followed by incubate of plate overnight at 37° C. and 5% CO2.
On day three, compounds were diluted in 100% DMSO at 1000× final concentration, followed by 3-fold serial dilutions for a total of 5 concentrations tested. Four compounds were tested per 10 cm dish. One ul of each compound dilution was then pipetted into a deep-well, 96-well plate, followed by addition of 500 μl DMEM+0.5% FBS into each well for a 2× final concentration of each compound. Cells were resuspended in a 10 cm dish by simple pipetting (HEK293 cells come off the plate that easy at this point) and then transferred to a 50 ml conical tube and pelleted by centrifugation at 1000 rpm for 5 min. Cell pellets were then resuspended in 2.75 ml DMEM+0.5% FBS per 10 cm dish and 100 μl of cell suspension transferred into each well of 96-well TC plate. Finally, 100 μl of 2× compound diluted in DMEM+0.5% FBS was then added into wells containing cell suspension for a 1× final concentration. Plates were then incubated at 37° C. and 5% CO2 for 3 hours followed by transferring of cell suspensions from each well into 12-tube PCR strips. The PCR strips were spun in a tip rack at 1000 rpm for 5 minutes to pellet cells and media was then removed by pipetting without disturbing the cell pellet.
To prepare for Western Blot analysis, cell pellets were resuspend in 40 ul 1×LDS-PAGE sample buffer (Invitrogen, cat.# NP0008)+2× Halt phophatase and protease inhibitor cocktail (Thermo Scientific, cat.#1861284), followed by sonicating each with microtip sonicator set at 5 for 8-10 seconds. Five ul of 10× NuPage Sample Reducing Agent (with […]) was to each sample followed by heat denaturing at 70 C. for 10 min on PCR machine. A total of 10 μl per sample was loaded into each lane of a 4-20% Tris-Glycine Criterion 26-well gel (Biorad, cat.#345-0034) for the phospho-mu2 blot and 10 μl per lane in a 4-12% Bis-Tris (+MES buffer) NuPAGE 26-well gel (Invitrogen, cat.# WG1403BX10) for the mu2 blot. For controls, 2 ng of phospho-mu2 or 20 ng mu2/Flag proteins were loaded in the last well of each gel. After SDS-PAGE, samples on each gel were transferred to PVDF membrane using an iBlot and membranes were blocked for one hour in TBST+5% milk, followed by wash 3× for 5-10 min with TBST. Criterion gels were probed with rabbit anti-phospho-mu2 (1:5000; a rabbit polyclonal antibody produced by New England Peptide and affinity purified at Lexicon) in TBST+5% BSA, whereas, NuPAGE gels were probed with mouse anti-Flag (1:500; Sigma, cat.# F1804) in TBST+5% milk, and these primary antibodies were incubated overnight at 4° C. on a rocker.

[4] = pyrazolo[1,5-a]pyrimidine-based inhibitors
[5] = Table 1 imidazo[1,2-b]pyridazines

| SMILES | IC50 [2, 4] [nM] | IC50 [3, 4] [nM] | IC50 [2, 5] [nM] | IC50 [3, 5] [nM] | Effect [1] |
| --- | --- | --- | --- | --- | --- |
| NCc1ccc(-c2cnc3ccc(NCCCc4ccccc4)nn23)cc1 [3-(4-(aminomethyl)phenyl)-N-(3-phenylpropyl)imidazo[1,2-b]pyridazin-6-amine] | – | – | – | – | ** (an effect equal to or greater than 100% of that of gabapentin at 200 mpk) |
| CCCC(=O)N(C)[C@H]1CCN(c2ccn3ncc(-c4ccccc4OC)c3n2)C1 | ≤ 10 | ≤ 1000 | – | – | – |
| CCCC(=O)N1CCC[C@H]1CNc1ccn2ncc(-c3ccccc3OC)c2n1 | ≤ 10 | ≤ 100 | – | – | – |
| COc1ncccc1-c1cnn2ccc(NCCCC(F)(F)F)nc12 | ≤ 10 | ≤ 100 | – | – | – |
| COc1ccc(-c2cnn3ccc(N4CCN(C(=O)OC(C)C)CC4)nc23)c(OC)n1 | ≤ 10 | ≤ 10 | – | – | – |
| COc1ncccc1-c1cnn2ccc(N3CC[C@H](N(C)C(=O)CC(F)(F)F)C3)nc12 | ≤ 10 | ≤ 10 | – | – | – |
| CCCC(=O)N(C)[C@H]1CCN(c2ccn3ncc(-c4cccnc4OC)c3n2)C1 | ≤ 10 | ≤ 1000 | – | – | – |
| COc1ccc(-c2cnn3ccc(N4CCN(C(=O)OC(C)C)CC4)nc23)nc1 | ≤ 10 | ≤ 10 | – | – | – |
| COc1ccccc1-c1cnn2ccc(NC[C@@H]3CCCN3C(=O)CC(F)(F)F)nc12 | ≤ 10 | ≤ 100 | – | – | – |
| COc1ccccc1-c1cnc2ccc(NC[C@@H]3CCC(=O)N3CCC(C)(C)C)nn12 | – | – | ≤ 10 | ≤ 1000 | – |
| COc1ccc(-c2cnn3ccc(NC[C@@H]4CCCN4C(=O)OC(C)(C)C)nc23)cc1 | ≤ 10 | ≤ 10 | – | – | – |
| CN(C(=O)CC(F)(F)F)[C@H]1CCN(c2ccn3ncc(-c4ccccn4)c3n2)C1 | ≤ 10 | ≤ 10 | – | – | – |
| COc1cnccc1-c1cnn2ccc(NC[C@@H]3CCC(=O)N3CCC(C)(C)C)nc12 | ≤ 10 | ≤ 100 | – | – | – |
| COc1ncccc1-c1cnn2ccc(N3CCN(C(=O)N(C)C(C)(C)C)CC3)nc12 | ≤ 10 | ≤ 100 | – | – | – |
| COc1ccccc1-c1cnn2ccc(N3CC[C@H](N(C)C(=O)OC(C)(C)C)C3)nc12 | ≤ 10 | ≤ 100 | – | – | – |
| COc1ncccc1-c1cnn2ccc(N3CCN(C(=O)N(C)C(C)C)CC3)nc12 | ≤ 10 | ≤ 100 | – | – | – |
| COc1cc(-c2cnn3ccc(N4CCN(C(=O)OC(C)C)CC4)nc23)c(OC)nn1 | ≤ 10 | ≤ 10 | – | – | – |
| COc1ncccc1-c1cnn2ccc(NC[C@@H]3CCC(=O)N3CCC(C)(C)C)nc12 | ≤ 10 | ≤ 100 | – | – | – |
| CC(C)OC(=O)N1CCN(c2ccn3ncc(-c4cccnc4OC(C)C)c3n2)CC1 | ≤ 10 | ≤ 100 | – | – | – |
| CC(C)OC(=O)N1CCN(c2ccn3ncc(-c4cccnc4Cl)c3n2)CC1 | ≤ 100 | ≤ 1000 | – | – | – |
| CN(C(=O)CC(C)(C)C)[C@H]1CCN(c2ccc3ncc(-c4cccnc4O)n3n2)C1 | – | – | ≤ 100 | ≤ 1000 | – |

Further lines, with some results ahead:

| IC50 [2, 4] [nM] | IC50 [3, 4] [nM] | IC50 [2, 5] [nM] | IC50 [3, 5] [nM] | SMILES | Effect [1] |
| --- | --- | --- | --- | --- | --- |
| ≤ 10 | ≤ 100 | – | – | COc1ccncc1-c1cnn2ccc(N3CCN(C(=O)OC(C)C)CC3)nc12 | – |
| ≤ 10 | ≤ 10 | – | – | COc1ncccc1-c1cnn2ccc(N3CCN(C(=O)OC(C)C)CC3=O)nc12 | – |
| ≤ 10 | ≤ 100 | – | – | Cc1cc(-c2cnn3ccc(N4CC[C@H](N(C)C(=O)OC(C)(C)C)C4)nc23)ccn1 | – |
| ≤ 10 | ≤ 100 | – | – | CC(C)OC(=O)N1CCN(c2ccn3ncc(-c4ccncc4)c3n2)CC1 | – |
| ≤ 10 | ≤ 100 | – | – | O=C(CC(F)(F)F)N1CCC[C@H]1CNc1ccn2ncc(-c3ccncc3)c2n1 | – |
| ≤ 10 | ≤ 100 | – | – | COc1ncccc1-c1cnn2ccc(N3CCN(C(=O)NC(C)(C)C)CC3)nc12 | – |
| ≤ 10 | ≤ 10 | – | – | CC(C)Oc1ccccc1-c1cnn2ccc(NC[C@@H]3CCCN3C(=O)OC(C)(C)C)nc12 | – |
| ≤ 10 | ≤ 10 | – | – | COc1ncccc1-c1cnn2ccc(N3CCN(C(=O)NC(C)C)CC3)nc12 | – |
| ≤ 10 | ≤ 100 | – | – | CC(C)OC(=O)N1CCN(c2ccn3ncc(-c4ccccn4)c3n2)CC1 | – |
| ≤ 10 | ≤ 100 | – | – | COc1cncc(-c2cnn3ccc(N4CCN(C(=O)OC(C)C)CC4)nc23)c1 | – |
